Test results reported in ChEMBL document CHEMBL1201862, “PubChem BioAssay data set” (2004).
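Compound exposure: 48 hours, 5 concentrations, 96-well plates. GI50 is the concentration that inhibits growth by half.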 The source made the active and inactive calls. Rule as the data show it: active = GI50 up to about 1.1 µM and inactive = higher.

Columns and labels:
Assay in all cases: NCI tumour cell line growth inhibition, 48 h
786-0 = test system: 786-0
CAKI-1 = test system: CAKI-1
HCT-116 = test system: HCT-116
K562 = test system: K562
LOX IMVI = test system: LOX IMVI
M19-MEL = test system: M19-MEL
NCI-H23 = test system: NCI-H23
RPMI-8226 = test system: RPMI-8226
SF-268 = test system: SF-268
SF-295 = test system: SF-295
SNB-19 = test system: SNB-19
SNB-75 = test system: SNB-75
SR = test system: SR
TK-10 = test system: TK-10
U-251 = test system: U-251
UACC-62 = test system: UACC-62
BT-549 = test system: BT-549
DU-145 = test system: DU-145
MDA-N = test system: MDA-N
PC-3 = test system: PC-3

Measured: GI50

C=CC(=O)NCNC(=O)C=C
inactive: 786-0 > 100 µM | CAKI-1 > 100 µM | HCT-116 > 100 µM | K562 > 100 µM | LOX IMVI > 100 µM | M19-MEL > 100 µM | NCI-H23 > 100 µM | RPMI-8226 > 100 µM | SF-268 > 100 µM | SF-295 > 100 µM | SNB-19 > 100 µM | SNB-75 > 100 µM | SR > 100 µM | TK-10 > 100 µM | U-251 > 100 µM | UACC-62 > 100 µM

Cc1cc(Cl)ccc1NC(=O)C(=O)Cc1ccc([N+](=O)[O-])c([N+](=O)[O-])c1CC(=O)C(=O)Nc1ccc(Cl)cc1C
inactive: 786-0 > 100 µM | CAKI-1 > 100 µM | HCT-116 > 100 µM | K562 > 100 µM | LOX IMVI > 100 µM | M19-MEL > 100 µM | NCI-H23 > 100 µM | RPMI-8226 > 100 µM | SF-268 > 100 µM | SF-295 > 100 µM | SNB-19 > 100 µM | SNB-75 > 100 µM | SR 42.1 µM | TK-10 > 100 µM | U-251 > 100 µM | UACC-62 > 100 µM

CC(C)=NNC(=S)NC12CC3CC(CC(C3)C1)C2
inactive: 786-0 > 100 µM | CAKI-1 > 100 µM | HCT-116 > 100 µM | K562 > 100 µM | LOX IMVI > 100 µM | M19-MEL > 100 µM | NCI-H23 > 100 µM | RPMI-8226 > 100 µM | SF-268 > 100 µM | SF-295 > 100 µM | SNB-19 > 100 µM | SNB-75 > 100 µM | SR > 100 µM | TK-10 > 100 µM | U-251 > 100 µM | UACC-62 > 100 µM

Cc1nc(-n2nc(-c3ccccc3)cc2-c2ccccc2)sc1C(/C=C\c1ccc([N+](=O)[O-])cc1)=N/NC(=S)NN
active: SR 0.0948 µM
inactive: 786-0 22.9 µM | BT-549 21.3 µM | CAKI-1 > 42.5 µM | DU-145 31 µM | HCT-116 19.5 µM | K562 > 56.6 µM | LOX IMVI 26.1 µM | M19-MEL > 100 µM | MDA-N 22 µM | NCI-H23 22.1 µM | PC-3 28.2 µM | RPMI-8226 > 48.8 µM | SF-268 26.4 µM | SF-295 13.8 µM | SNB-19 > 49.3 µM | SNB-75 74.3 µM | TK-10 37.2 µM | U-251 > 74.3 µM | UACC-62 39.1 µM

CCCCCCCCCCCCC(=O)OC(c1cnco1)c1nc(C(O)CC(O)C(O)C(C)O)co1 (configuration not stated)
inactive: DU-145 > 10 µM | MDA-N 1.95 µM | PC-3 2.22 µM | SNB-19 11.3 µM | TK-10 5.62 µM
active: 786-0 0.217 µM | CAKI-1 0.265 µM | HCT-116 0.157 µM | K562 0.21 µM | LOX IMVI 0.144 µM | M19-MEL 0.78 µM | NCI-H23 0.336 µM | RPMI-8226 0.273 µM | SF-268 0.333 µM | SF-295 0.467 µM | SNB-75 0.581 µM | SR < 0.0407 µM | U-251 0.129 µM | UACC-62 0.341 µM

Cc1ccc(NC(=O)CC(=O)n2nc(-c3ccccc3)c(/N=N/c3ccccc3Cl)c2-c2ccccc2)cc1
inactive: 786-0 32.6 µM | CAKI-1 42.6 µM | HCT-116 39.5 µM | K562 94.8 µM | LOX IMVI 92.5 µM | M19-MEL > 10 µM | NCI-H23 39.5 µM | RPMI-8226 > 10 µM | SF-268 > 10 µM | SF-295 48 µM | SNB-19 38.8 µM | SNB-75 16.4 µM | SR > 100 µM | TK-10 83.9 µM | U-251 60.8 µM | UACC-62 45.4 µM

CC(C)(C)C[P+](C)(C)c1ccccc1
inactive: 786-0 > 100 µM | CAKI-1 > 100 µM | HCT-116 > 100 µM | K562 34.4 µM | LOX IMVI > 100 µM | M19-MEL > 100 µM | NCI-H23 > 100 µM | RPMI-8226 > 100 µM | SF-268 > 100 µM | SF-295 > 100 µM | SNB-19 > 100 µM | SNB-75 > 100 µM | SR > 100 µM | TK-10 > 100 µM | U-251 > 100 µM | UACC-62 > 100 µM

COC1=C(C)C(=O)C2=C(C1=O)C1C3CC4=C(C(=O)C(OC)=C(C)C4=O)C(CNC(=O)C(C)O)N3C(C#N)C(C2)N1C (configuration not stated)
active: 786-0 < 0.0113 µM | BT-549 < 0.01 µM | CAKI-1 0.037 µM | DU-145 0.016 µM | HCT-116 0.0465 µM | K562 < 0.01 µM | LOX IMVI < 0.01 µM | M19-MEL < 0.01 µM | MDA-N < 0.01 µM | NCI-H23 < 0.0178 µM | PC-3 < 0.011 µM | RPMI-8226 < 0.01 µM | SF-268 < 0.01 µM | SF-295 0.0579 µM | SNB-19 < 0.01 µM | SNB-75 < 0.0104 µM | SR < 0.01 µM | TK-10 0.0353 µM | U-251 < 0.01 µM | UACC-62 < 0.01 µM

CCN(CC)CC(=O)Nc1ccc2c(c1)C(=O)c1ccc(NC(=O)CN(CC)CC)cc1C2=O
inactive: 786-0 18.9 µM | CAKI-1 70.1 µM | HCT-116 13.6 µM | K562 24.7 µM | LOX IMVI 14.7 µM | M19-MEL > 100 µM | NCI-H23 77.6 µM | RPMI-8226 31.3 µM | SF-268 23.1 µM | SF-295 39 µM | SNB-19 23.8 µM | SNB-75 25.7 µM | SR 18.1 µM | TK-10 43 µM | U-251 21.6 µM | UACC-62 73.8 µM

COc1cc(CNc2nc3c(N)cc(C(F)(F)F)cc3nc2-c2ccccc2)cc(OC)c1OC
inactive: 786-0 88.3 µM | CAKI-1 > 10 µM | HCT-116 19.7 µM | K562 12.1 µM | LOX IMVI 18.5 µM | M19-MEL 35.4 µM | NCI-H23 19 µM | RPMI-8226 47.3 µM | SF-268 50.8 µM | SF-295 37.7 µM | SNB-19 > 10 µM | SNB-75 89.3 µM | SR > 10 µM | TK-10 > 10 µM | U-251 63.8 µM | UACC-62 35.2 µM

CCN(CC)CCNC(=O)c1ccc(C)c(OCc2ccccc2)c1[N+](=O)[O-]
inactive: 786-0 33.3 µM | BT-549 > 35.8 µM | CAKI-1 20.7 µM | DU-145 > 90.2 µM | HCT-116 23 µM | K562 19.2 µM | LOX IMVI 22.5 µM | M19-MEL 18.1 µM | MDA-N 19.9 µM | NCI-H23 54.3 µM | PC-3 45.3 µM | RPMI-8226 25.8 µM | SF-268 63.2 µM | SF-295 24.5 µM | SNB-19 > 80.7 µM | SNB-75 18 µM | SR 27.7 µM | TK-10 61.2 µM | U-251 39.7 µM | UACC-62 20.7 µM

O=C(CCc1nnc(S)[nH]1)Nc1ccc(Cl)c(Cl)c1
inactive: 786-0 > 100 µM | CAKI-1 > 100 µM | HCT-116 47 µM | K562 9.1 µM | M19-MEL 43.6 µM | NCI-H23 53.3 µM | RPMI-8226 > 100 µM | SF-268 42.8 µM | SF-295 50.6 µM | SNB-19 > 100 µM | SNB-75 20 µM | SR 51.2 µM | TK-10 79.4 µM | U-251 99.5 µM | UACC-62 2.98 µM

CC[n+]1c(/C=C/c2ccc(N(CCCl)CCCl)cc2)ccc2cc(Br)ccc21
inactive: 786-0 1.84 µM | CAKI-1 2.62 µM | HCT-116 131 µM | LOX IMVI 1.47 µM | M19-MEL 1.2 µM | NCI-H23 2.79 µM | RPMI-8226 2.53 µM | SF-268 1.61 µM | SF-295 2.65 µM | SNB-19 1.22 µM | SR 1.46 µM | TK-10 4.48 µM | U-251 1.31 µM | UACC-62 1.19 µM
active: K562 0.361 µM | SNB-75 0.312 µM
